Data reported in ChEMBL document CHEMBL3217528, “Bicyclic imidazole-4-one derivatives: a new class of antagonists for the orphan G protein-coupled receptors GPR18 and GPR55” (Medchemcomm, 2014).
Active and inactive are the calls of the source. No cut-off for these calls is given here.

Tests used:
[1] = molecular target: T1, Cannabinoid receptor 2 (Homo sapiens, UniProt P34972); experiment: Displacement of [3H]CP55,940 from human recombinant CB2 receptor expressed in HEK293 cells; format: cell-based
[2] = molecular target: T1, Cannabinoid receptor 2; experiment: Displacement of [3H]CP55,940 from human recombinant CB2 receptor expressed in HEK293 cells at 10 uM; format: cell-based
[3] = Displacement of [3H]diazepam from GABAA receptor in rat brain cortical membranes; format: cell membranes
[4] = molecular target: T2, G-protein coupled receptor 35 (Homo sapiens, UniProt Q9HC97); experiment: Agonist activity at human GPR35 assessed as induction of beta-arrestin recruitment by beta-galactosidase enzyme fragment complementation method relative to zaprinast; set-up: concentration or dose not given beside the values
[5] = molecular target: T3, N-arachidonyl glycine receptor (Homo sapiens) (UniProt Q14330); experiment: Antagonist activity against human GPR18 expressed in CHO cells assessed as reduction in delta9-THC-induced beta-arrestin recruitment at 10 uM by beta-galactosidase enzyme fragment complementation method; format: cell-based
T3 sequence (whole entry): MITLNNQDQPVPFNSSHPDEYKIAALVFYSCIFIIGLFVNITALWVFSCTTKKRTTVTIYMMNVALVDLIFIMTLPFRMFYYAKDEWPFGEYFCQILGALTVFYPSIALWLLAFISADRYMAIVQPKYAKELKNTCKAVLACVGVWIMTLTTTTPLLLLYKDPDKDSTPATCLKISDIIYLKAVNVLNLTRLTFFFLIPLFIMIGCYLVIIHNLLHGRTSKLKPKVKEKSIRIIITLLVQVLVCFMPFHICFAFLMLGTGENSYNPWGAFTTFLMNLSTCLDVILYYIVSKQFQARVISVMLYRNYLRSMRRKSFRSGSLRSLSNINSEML

[6] = molecular target: T4, N-arachidonyl glycine receptor (Homo sapiens, UniProt Q14330); experiment: Antagonist activity against human GPR18 expressed in CHO cells assessed as reduction in delta9-THC-induced beta-arrestin recruitment by beta-galactosidase enzyme fragment complementation method; format: cell-based
T4 sequence (Q14330 whole entry): T3 sequence (whole entry)

[7] = molecular target: T5, Cannabinoid receptor 1 (Homo sapiens, UniProt P21554); experiment: Displacement of [3H]CP55,940 from human recombinant CB1 receptor expressed in CHO-K1 cells; format: cell-based
[8] = species: Rattus norvegicus; experiment: Displacement of [3H]diazepam from GABAA receptor in rat brain cortical membranes at 10 uM; format: cell membranes
[9] = molecular target: T6, G-protein coupled receptor 55 (Homo sapiens, UniProt Q9Y2T6); experiment: Inverse agonist activity against human GPR55 expressed in CHO cells assessed as reduction in LPI-induced beta-arrestin recruitment at 10 uM by beta-galactosidase enzyme fragment complementation method; format: cell-based
[10] = molecular target: T6, G-protein coupled receptor 55; experiment: Allosteric antagonist activity against human GPR55 expressed in CHO cells assessed as induction of rightward shift of concentration response curve of LPI-induced beta-arrestin recruitment at 10 uM by beta-galactosidase enzyme fragment complementation method; format: cell-based
[11] = molecular target: T5, Cannabinoid receptor 1; experiment: Displacement of [3H]CP55,940 from human recombinant CB1 receptor expressed in CHO-K1 cells at 10 uM; format: cell-based
[12] = molecular target: T3, N-arachidonyl glycine receptor (Homo sapiens); experiment: Agonist activity at human GPR18 expressed in CHO cells assessed as induction of beta-arrestin recruitment by beta-galactosidase enzyme fragment complementation method relative to delta9-THC; format: cell-based; set-up: concentration or dose not given beside the values
[13] = molecular target: T6, G-protein coupled receptor 55; experiment: Agonist activity at human GPR55 expressed in CHO cells assessed as induction of LPI-induced beta-arrestin recruitment by beta-galactosidase enzyme fragment complementation method relative to LPI; format: cell-based; set-up: concentration or dose not given beside the values
[14] = molecular target: T2, G-protein coupled receptor 35; experiment: Antagonist activity at human GPR35 assessed as reduction of zaprinast-induced beta-arrestin recruitment by beta-galactosidase enzyme fragment complementation method
[15] = molecular target: T2, G-protein coupled receptor 35; experiment: Agonist activity at human GPR35 assessed as induction of beta-arrestin recruitment by beta-galactosidase enzyme fragment complementation method
[16] = molecular target: T6, G-protein coupled receptor 55; experiment: Antagonist activity against human GPR55 expressed in CHO cells assessed as reduction in LPI-induced beta-arrestin recruitment by beta-galactosidase enzyme fragment complementation method; format: cell-based
[17] = molecular target: T2, G-protein coupled receptor 35; experiment: Antagonist activity at human GPR35 assessed as reduction of zaprinast-induced beta-arrestin recruitment by beta-galactosidase enzyme fragment complementation method relative to untreated control; set-up: concentration or dose not given beside the values; details: concentration not given here
[18] = molecular target: T6, G-protein coupled receptor 55; experiment: Agonist activity at human GPR55 expressed in CHO cells assessed as induction of LPI-induced beta-arrestin recruitment by beta-galactosidase enzyme fragment complementation method; format: cell-based
[19] = molecular target: T4, N-arachidonyl glycine receptor; experiment: Agonist activity at human GPR18 expressed in […] cells by MAP kinase assay; format: cell-based

T6 sequence (Q9Y2T6 whole entry, the tested form may be a part): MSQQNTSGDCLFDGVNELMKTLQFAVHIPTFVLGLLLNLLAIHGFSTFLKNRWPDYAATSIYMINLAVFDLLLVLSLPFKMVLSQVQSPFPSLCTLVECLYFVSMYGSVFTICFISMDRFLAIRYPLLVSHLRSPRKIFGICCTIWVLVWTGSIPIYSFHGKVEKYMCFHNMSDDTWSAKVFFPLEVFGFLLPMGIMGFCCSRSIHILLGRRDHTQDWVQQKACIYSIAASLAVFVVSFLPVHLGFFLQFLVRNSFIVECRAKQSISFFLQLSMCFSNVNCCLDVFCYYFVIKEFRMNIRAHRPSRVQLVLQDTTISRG
T2 sequence (Q9HC97 whole entry, the tested form may be a part): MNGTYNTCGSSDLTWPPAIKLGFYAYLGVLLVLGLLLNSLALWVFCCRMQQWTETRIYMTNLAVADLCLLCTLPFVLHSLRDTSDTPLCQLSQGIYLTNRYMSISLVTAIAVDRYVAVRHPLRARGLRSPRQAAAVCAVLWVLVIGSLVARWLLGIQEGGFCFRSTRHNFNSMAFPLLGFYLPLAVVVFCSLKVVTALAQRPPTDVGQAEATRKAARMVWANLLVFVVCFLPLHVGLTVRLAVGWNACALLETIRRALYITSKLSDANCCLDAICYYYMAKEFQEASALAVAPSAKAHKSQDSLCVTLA
T5 sequence (P21554 whole entry): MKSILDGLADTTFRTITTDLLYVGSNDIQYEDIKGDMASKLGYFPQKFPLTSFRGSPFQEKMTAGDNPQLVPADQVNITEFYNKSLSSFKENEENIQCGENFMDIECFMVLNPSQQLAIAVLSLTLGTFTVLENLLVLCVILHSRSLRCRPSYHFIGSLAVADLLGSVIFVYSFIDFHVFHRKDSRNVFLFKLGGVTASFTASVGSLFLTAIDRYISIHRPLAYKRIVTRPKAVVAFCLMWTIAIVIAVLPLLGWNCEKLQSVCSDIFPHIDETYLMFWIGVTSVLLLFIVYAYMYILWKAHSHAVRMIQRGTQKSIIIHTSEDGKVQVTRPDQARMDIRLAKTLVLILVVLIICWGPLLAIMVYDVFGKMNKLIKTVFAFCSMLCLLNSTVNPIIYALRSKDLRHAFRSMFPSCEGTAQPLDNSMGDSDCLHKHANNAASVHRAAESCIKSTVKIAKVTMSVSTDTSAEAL
T1 sequence (P34972 whole entry): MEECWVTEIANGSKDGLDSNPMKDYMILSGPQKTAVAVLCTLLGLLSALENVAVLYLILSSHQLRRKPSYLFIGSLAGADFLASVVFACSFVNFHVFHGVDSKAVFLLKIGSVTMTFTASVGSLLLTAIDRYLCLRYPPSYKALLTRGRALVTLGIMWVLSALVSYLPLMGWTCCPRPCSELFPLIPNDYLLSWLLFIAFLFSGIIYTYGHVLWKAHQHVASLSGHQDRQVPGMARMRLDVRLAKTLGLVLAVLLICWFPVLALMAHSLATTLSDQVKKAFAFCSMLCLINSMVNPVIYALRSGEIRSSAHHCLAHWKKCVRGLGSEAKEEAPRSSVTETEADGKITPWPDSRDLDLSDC

| Structure (SMILES) | Ki [1] [µM] | inhibition [2] [%] | Ki [3] [µM] | Activity [4] [%] | inhibition [5] [%] | IC50 [6] [µM] | Ki [7] [µM] | inhibition [8] [%] | inhibition [9] | Allosteric antagonist activity [10] | inhibition [11] [%] | Activity [12] [%] | Activity [13] [%] | IC50 [14] [µM] | EC50 [15] [µM] | IC50 [16] [µM] | inhibition [17] [%] | EC50 [18] [µM] | EC50 [19] [µM] |
| --- | --- | --- | --- | --- | --- | --- | --- | --- | --- | --- | --- | --- | --- | --- | --- | --- | --- | --- | --- |
| O=C1/C(=C/c2cccc(F)c2F)N=C2SCCCN12 | > 10 | 0 | > 10 | -4 | 3 | > 10 | > 10 | 24 | Active | Active | 7 | 4 | 0 | > 10 | > 10 | 3.15 | 17 |  |  |
| CCCCCc1cc(O)c2c(c1)OC(C)(C)[C@@H]1CCC(C)=C[C@@H]21 [DRONABINOL] |  |  |  |  |  |  |  |  |  |  |  |  |  |  |  |  |  | 14.2 | 0.96 |
